Where a name gives a salt, the structure may show the parent alone.
Tests used:
[1] = target: T1, 5-HT1A receptor (Rattus norvegicus, UniProt P19327); assay: Affinity for the 5-HT1A receptor (3H-8-OH-DPAT displacement); format: binding; conditions: Tissue: cerebral cortex of rat, average of at least 3 experiments
T1 construct: Tissue: cerebral cortex of rat; from tissue; host or cells: rat cerebral cortex
T1 sequence (P19327 1-422): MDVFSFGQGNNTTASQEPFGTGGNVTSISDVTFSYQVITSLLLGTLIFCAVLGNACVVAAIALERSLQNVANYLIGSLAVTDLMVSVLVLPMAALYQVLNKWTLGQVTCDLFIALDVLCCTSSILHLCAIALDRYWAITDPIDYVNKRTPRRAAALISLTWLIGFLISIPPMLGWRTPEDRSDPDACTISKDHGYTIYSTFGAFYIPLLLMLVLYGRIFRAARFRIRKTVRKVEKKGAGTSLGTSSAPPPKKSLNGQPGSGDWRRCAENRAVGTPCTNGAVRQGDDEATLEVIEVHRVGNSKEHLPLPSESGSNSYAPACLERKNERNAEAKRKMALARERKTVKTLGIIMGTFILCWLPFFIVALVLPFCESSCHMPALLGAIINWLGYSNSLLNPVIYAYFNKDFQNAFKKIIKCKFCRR
Description: Measurement of the affinity of compound F and reference products for the 5-HT1A receptor
Study of the bond with the 5-HT1A receptor was carried out according to a standard method (Naunyn-Schmiedeberg's Arch. Pharmaco. 1991, 343, 106). The inhibition constants (Ki) of the products according to the invention were estimated from displacement experiments using the version 4 RADLIG non-linear regression programme of EBDA (Equilibrium Binding Data Analysis) (Biosoft, Cambridge, UK, Mc Pherson, 1985). The dissociation constants of the radioactive ligands used in the calculations are 0.31 nmole for ^3H-8-OH-DPAT. The values of pKi (−logKi) are provided under the form of average±SEM of at least 3 experiments.

[2] = tested on: morphine withdrawal syndrome (hyperalgesia); assay: Effects on morphine dependence: naloxone-precipitated withdrawal hyperalgesia (Randall and Selitto nociceptive thresholds); format: in vivo; conditions: rat, s.c. osmotic mini-pumps 2 weeks
Description: The products are administered by means of osmotic mini-pumps (model 2ML2; flow rate 5 μl/hr: Alza Corporation, Palo Alto, USA) implanted subcutaneously on the first day of the experiment and extracted two weeks later. The pump is set in place through a transversal incision made in the skin of the dorsal face of the rat, the liberation orifice being directed towards the head.
The compound F is administered at 0.63 mg/rat/day (5.25 mg/ml) in solution in distilled water. […] The pumps implanted in the control animals release 0.12 ml of 0.9% NaCl (saline)/rat/day; the doses referring to the weight of the non salified compound.
The study consists of two phases: a phase of chronic treatment lasting 2 weeks, and a withdrawal phase lasting 1 week.
On the experiment's first day the rats were given implants of two osmotic mini-pumps.
After two weeks of chronic treatment, the withdrawal phase began. After taking base measurements on day 14, all the animals received a sub-cutaneous injection of naloxone at 0.63 mg/kg. Next, 30 minutes, 1 hr, 2 hr, 4 hr, and 8 hr after the injection, another series of measurements was taken. The pumps were extracted after the last measurement at 8 hr after the naloxone injection. A series of measurements was also taken daily 24 hr to 4 days after the naloxone injection. During this withdrawal period, the nociceptive thresholds were measured using the Randall and Selitto method (Arch. Int. Pharmacodyn. 1957, CXI, 409) in which increasing pressure is applied to the back paw until the vocalisation threshold is reached. The results are expressed in grams and a 750 g limit is imposed.
In order to evaluate the nociceptive thresholds, the areas under the curves (AUCs) were determined and processed by a variance analysis (ANOVA). The post-hoc comparisons (i.e. those following the variance analysis when the latter is significant) were made using the Student-Newman-Keuls (SNK) test for comparing groups with each other. A statistically significant effect was defined at p<0.05.

SMILES	pKi site 5-HT1A [1]	AUC of nociceptive thresholds 30 minutes to 4 days after naloxone, versus control animals ([2]; co-treatment morphine 5 mg/rat/day + compound 0.63 mg/rat/day, naloxone 0.63 mg/kg s.c., SNK p>0.05)	AUC of nociceptive thresholds 30 minutes to 4 days after naloxone, compound alone versus control animals ([2]; saline + compound 0.63 mg/rat/day, no morphine, p>0.05)	Ki ([1]; read-out: pKi site 5-HT1A (converted)) [nM]	Effect on hyperalgesia / morphine withdrawal syndrome (AUC of nociceptive thresholds) ([2]; co-treatment morphine 5 mg/rat/day + compound 2.5 mg/rat/day, naloxone 0.63 mg/kg s.c., SNK p<0.05 vs control)
Cc1ccc(CNCC2(F)CCN(C(=O)c3ccc(F)c(Cl)c3)CC2)nc1 [compound F, (3-Chloro-4-fluorophenyl)-(4-fluoro-4-{[(5-methyl-pyridin-2-yl-methyl)-amino]-methyl}-piperidin-1-yl)-methadone fumarate]	9.07	statistically comparable with those obtained from the control animals	does not induce an effect on its own		
Clc1cnn(CCCCN2CCN(c3ncccn3)CC2)c1 [lesopitron, reference compound]				55	did not have any detectable effect on the hyperalgesia

From US20050065348A1, “Pyridin-2-yl-methylamine derivatives for treating opioid dependence” (priority 2001, published 2005)
